{
  "source": "patent US12624017B2",
  "about": "“Salt form of isoquinolinone type compound as rock inhibitor and preparation method therefor” (GUANGZHOU OCUSUN OPHTHALMIC BIOTECHNOLOGY CO., LTD., priority 2020, dated 2026)",
  "key": {"[1]": {"experiment": "Hygroscopicity research by dynamic vapor sorption (DVS)", "format": "physicochemical", "conditions": "25° C. and 80% RH", "description": "Dynamic Vapor Sorption (DVS) Method\nInstrument model: SMS DVS intrinsic dynamic vapor sorption instrument\nA dynamic water sorption experiment consists of adsorption and desorption. It is generally believed that at a set relative humidity, the adsorption or desorption of the sample to moisture at this relative humidity is considered to have reached equilibrium when the sample weight reaches dm/dt≤0.01%.\nSample testing temperature: T=25° C.\nEquilibrium time: dm/dt: 0.01%/min\nRelative humidity variation range: 0%-95%-0%; RH (%)\nTest humidity change at each step: 5%\nThe evaluation of hygroscopicity is classified as follows:\nSMS DVS intrinsic dynamic vapor sorption instrument\n10 to 15 mg of the crystal form B of the compound of formula (II) was put in a DVS sample tray for testing."}, "[2]": {"experiment": "Solid stability research (crystal form stability on storage)", "format": "physicochemical", "conditions": "40° C./75% RH 6 months; 25° C./60% RH 12 months", "description": "The crystal form B of the compound of formula (II) was placed at 40° C./75% RH (sealed with a double-layer LDPE bag and further heat-sealed with an aluminum foil bag) for 6 months, and placed at 25° C./60% RH (sealed with a double-layer LDPE bag and further heat-sealed with an aluminum foil bag) for 12 months, respectively. The crystal form was tested individually at each sampling point to determine the crystal form stability of the sample."}},
  "data": [
    {"smiles": "Cc1ccc(C(=O)OCn2cc(C)c3c(S(=O)(=O)N4CC[C@H](N)C4)cccc3c2=O)c(C)c1", "values": [
      {"measurement": "Classification of hygroscopicity", "setting": "[1]", "result": "slightly hygroscopic"},
      {"measurement": "ΔW, hygroscopic weight gain", "setting": "[1]; DVS", "result": 0.736, "unit": "%"},
      {"measurement": "Stability in accelerated and long-term tests", "setting": "[2]", "result": "good stability"}
    ]}
  ]
}
